How the values were obtained:
Type in all cases: in vivo
[1] = system: ECHCG (Echinocloa crus-galli); experiment: greenhouse post-emergence herbicidal test
Description: (§1) The culture containers used were plastic flowerpots containing loamy sand with approximately 3.0% of humus as the substrate. The seeds of the test plants were sown separately for each species.
(§2) For the post-emergence treatment, the test plants were first grown to a height of 3 to 15 cm, depending on the plant habit, and only then treated with the active ingredients which had been suspended or emulsified in water. For this purpose, the test plants were either sown directly and grown in the same containers, or they were first grown separately as seedlings and transplanted into the test containers a few days prior to treatment.
(§3) Depending on the species, the plants were kept at 10-25° C. or 20-35° C., respectively.
(§4) The test period extended over 2 to 4 weeks. During this time, the plants were tended, and their response to the individual treatments was evaluated.
(§5) Evaluation was carried out using a scale from 0 to 100. 100 means no emergence of the plants, or complete destruction of at least the aerial moieties, and 0 means no damage, or normal course of growth. A moderate herbicidal activity is given at values of at least 60, a good herbicidal activity is given at values of at least 70, and a very good herbicidal activity is given at values of at least 85.
(§6) The plants used in the greenhouse experiments were of the following species: […]

[2] = system: AMARE (Amaranthus retroflexus); experiment: greenhouse post-emergence herbicidal test
Description: as §1, §2, §3, §4, §5, §6

[3] = system: CAPBP (Capsella bursa-pastoris); experiment: greenhouse pre-emergence herbicidal test; conditions: CAPBP
Description: as §1
(§7) For the pre-emergence treatment, the active ingredients, which had been suspended or emulsified in water, were applied directly after sowing by means of finely distributing nozzles. The containers were irrigated gently to promote germination and growth and subsequently covered with transparent plastic hoods until the plants had rooted. This cover caused uniform germination of the test plants, unless this had been impaired by the active ingredients.
as §3, §4, §5, §6

VIOAR (Viola arvensis) = experiment: greenhouse pre-emergence herbicidal test
Description: as §1, §7, §3, §4, §5, §6

STEME (Stellaria media) = experiment: greenhouse pre-emergence herbicidal test
Description: as §1, §7, §3, §4, §5, §6

[4] = system: ECHCG (Echinocloa crus-galli); experiment: greenhouse pre-emergence herbicidal test; conditions: 125 g/ha
Description: as §1, §7, §3, §4, §5, §6

SETVI (Setaria viridis) = experiment: greenhouse pre-emergence herbicidal test
Description: as §1, §7, §3, §4, §5, §6

[5] = system: ABUTH (Abutilon theophrasti); experiment: greenhouse post-emergence herbicidal test
Description: as §1, §2, §3, §4, §5, §6

[6] = system: POLCO (Polygonum convolvulus); experiment: greenhouse post-emergence herbicidal test
Description: as §1, §2, §3, §4, §5, §6

[7] = system: CHEAL (Chenopodium album); experiment: greenhouse post-emergence herbicidal test
Description: as §1, §2, §3, §4, §5, §6

CC(C)(F)c1nc(N)nc(Nc2ccc(C(=O)O)cc2F)n1 [Example 173]
herbicidal activity ([1]; 500 g/ha): good (a good herbicidal activity is given at values of at least 70)

Nc1nc(Nc2c(F)c(F)c(F)c(F)c2F)nc(C2CCC2)n1 [Example 57]
herbicidal activity ([2]; 0.062 kg/ha): very good (a very good herbicidal activity is given at values of at least 85)
herbicidal activity ([1]; 0.062 kg/ha): very good (a very good herbicidal activity is given at values of at least 85)

Nc1nc(Nc2c(F)c(F)c(Br)c(F)c2F)nc(C2CCCC2)n1 [Example 210]
herbicidal activity ([3]; 250 g/ha): very good (a very good herbicidal activity is given at values of at least 85)
herbicidal activity (VIOAR (Viola arvensis); 250 g/ha): very good (a very good herbicidal activity is given at values of at least 85)
herbicidal activity (STEME (Stellaria media); 250 g/ha): very good (a very good herbicidal activity is given at values of at least 85)

CC(C)(C)c1nc(N)nc(Nc2c(F)ccc(Cl)c2F)n1 [Example 81]
herbicidal activity ([3]; 125 g/ha): very good (a very good herbicidal activity is given at values of at least 85)
herbicidal activity (VIOAR (Viola arvensis); 125 g/ha): very good (a very good herbicidal activity is given at values of at least 85)
herbicidal activity (STEME (Stellaria media); 125 g/ha): very good (a very good herbicidal activity is given at values of at least 85)

CC(c1nc(N)nc(Nc2c(F)c(F)c(F)c(F)c2F)n1)C1CC1 (stereo not shown) [Example 63]
herbicidal activity [4]: very good (a very good herbicidal activity is given at values of at least 85)
herbicidal activity (STEME (Stellaria media); 125 g/ha): very good (a very good herbicidal activity is given at values of at least 85)
herbicidal activity (SETVI (Setaria viridis); 125 g/ha): very good (a very good herbicidal activity is given at values of at least 85)

CC(F)c1nc(N)nc(Nc2c(F)c(F)cc(F)c2F)n1 (stereo not shown) [Example 17]
herbicidal activity ([5]; 0.125 kg/ha): very good (a very good herbicidal activity is given at values of at least 85)
herbicidal activity ([6]; 0.125 kg/ha): very good (a very good herbicidal activity is given at values of at least 85)

CCC(C)(F)c1nc(NC(C)=O)nc(Nc2c(F)c(F)cc(F)c2F)n1 (stereo not shown) [Example 207]
herbicidal activity ([3]; 125 g/ha): very good (a very good herbicidal activity is given at values of at least 85)
herbicidal activity (STEME (Stellaria media); 125 g/ha): very good (a very good herbicidal activity is given at values of at least 85)
herbicidal activity (SETVI (Setaria viridis); 125 g/ha): very good (a very good herbicidal activity is given at values of at least 85)

Nc1nc(Nc2c(F)cc(F)cc2F)nc(C2CC2)n1 [Example 143]
herbicidal activity ([2]; 500 g/ha): very good (a very good herbicidal activity is given at values of at least 85)
herbicidal activity ([6]; 500 g/ha): good (a good herbicidal activity is given at values of at least 70)
herbicidal activity ([7]; 500 g/ha): very good (a very good herbicidal activity is given at values of at least 85)

CC(C)(Cl)c1nc(N)nc(Nc2c(F)ccc(Cl)c2F)n1 [Example 108]
herbicidal activity ([3]; 250 g/ha): very good (a very good herbicidal activity is given at values of at least 85)
herbicidal activity (VIOAR (Viola arvensis); 250 g/ha): very good (a very good herbicidal activity is given at values of at least 85)
herbicidal activity (STEME (Stellaria media); 250 g/ha): very good (a very good herbicidal activity is given at values of at least 85)

CC(C)c1nc(N)nc(Nc2c(F)c(F)cc(F)c2F)n1 [Example 6]
herbicidal activity ([2]; 0.031 kg/ha): very good (a very good herbicidal activity is given at values of at least 85)
herbicidal activity ([6]; 0.031 kg/ha): good (a good herbicidal activity is given at values of at least 70)

CC(F)c1nc(N)nc(Nc2c(F)cc(Br)cc2F)n1 (stereo not shown) [Example 19]
herbicidal activity (VIOAR (Viola arvensis); 0.125 kg/ha): good (a good herbicidal activity is given at values of at least 70)

Nc1nc(Nc2c(F)c(F)c(F)c(F)c2F)nc(C(F)(F)Cl)n1 [Example 146]
herbicidal activity ([2]; 500 g/ha): very good (a very good herbicidal activity is given at values of at least 85)
herbicidal activity ([6]; 500 g/ha): very good (a very good herbicidal activity is given at values of at least 85)
herbicidal activity ([7]; 500 g/ha): very good (a very good herbicidal activity is given at values of at least 85)

COc1ccc(F)c(F)c1Nc1nc(N)nc(C(C)(C)F)n1 [Example 61]
herbicidal activity ([2]; 0.062 kg/ha): very good (a very good herbicidal activity is given at values of at least 85)
herbicidal activity ([6]; 0.062 kg/ha): very good (a very good herbicidal activity is given at values of at least 85)

Nc1nc(CCC(F)(F)F)nc(Nc2c(F)c(F)c(F)c(F)c2F)n1 [Example 73]
herbicidal activity ([3]; 250 g/ha): very good (a very good herbicidal activity is given at values of at least 85)
herbicidal activity (STEME (Stellaria media); 250 g/ha): very good (a very good herbicidal activity is given at values of at least 85)
herbicidal activity (SETVI (Setaria viridis); 250 g/ha): very good (a very good herbicidal activity is given at values of at least 85)

CC(F)(F)c1nc(N)nc(Nc2c(F)c(F)cc(F)c2F)n1 [Example 8]
herbicidal activity ([5]; 0.062 kg/ha): very good (a very good herbicidal activity is given at values of at least 85)
herbicidal activity ([7]; 0.062 kg/ha): very good (a very good herbicidal activity is given at values of at least 85)

CC(F)c1nc(N)nc(Nc2c(F)cccc2F)n1 (stereo not shown) [Example 12]
herbicidal activity ([3]; 0.125 kg/ha): very good (a very good herbicidal activity is given at values of at least 85)
herbicidal activity (VIOAR (Viola arvensis); 0.125 kg/ha): very good (a very good herbicidal activity is given at values of at least 85)

CC(C)(F)c1nc(N)nc(Nc2ccc(F)c(F)c2F)n1 [Example 26]
herbicidal activity ([3]; 0.125 kg/ha): good (a good herbicidal activity is given at values of at least 70)
herbicidal activity (VIOAR (Viola arvensis); 0.125 kg/ha): very good (a very good herbicidal activity is given at values of at least 85)

Nc1nc(Nc2c(F)c(F)cc(F)c2F)nc(C(F)(F)F)n1 [Example 132]
herbicidal activity ([2]; 500 g/ha): very good (a very good herbicidal activity is given at values of at least 85)
herbicidal activity ([6]; 500 g/ha): very good (a very good herbicidal activity is given at values of at least 85)
herbicidal activity ([7]; 500 g/ha): very good (a very good herbicidal activity is given at values of at least 85)

Nc1nc(C2CC2)nc(N(C(=O)C2CC2)c2c(F)c(F)cc(F)c2F)n1 [Example 285]
herbicidal activity ([2]; 62 g/ha): very good (a very good herbicidal activity is given at values of at least 85)
herbicidal activity ([7]; 62 g/ha): good (a good herbicidal activity is given at values of at least 70)

CC(F)c1nc(N)nc(Nc2c(F)cc(F)cc2F)n1 (stereo not shown) [Example 15]
herbicidal activity (SETVI (Setaria viridis); 0.0625 kg/ha): moderate (A moderate herbicidal activity is given at values of at least 60)

CC(F)(F)c1nc(N)nc(Nc2c(F)cc(F)cc2F)n1 [Example 138]
herbicidal activity ([3]; 125 g/ha): very good (a very good herbicidal activity is given at values of at least 85)
herbicidal activity (VIOAR (Viola arvensis); 125 g/ha): very good (a very good herbicidal activity is given at values of at least 85)
herbicidal activity (STEME (Stellaria media); 125 g/ha): very good (a very good herbicidal activity is given at values of at least 85)

CC(C)(F)c1nc(N)nc(Nc2c(F)cc(C#N)cc2F)n1 [Example 71]
herbicidal activity ([6]; 125 g/ha): good (a good herbicidal activity is given at values of at least 70)
herbicidal activity ([7]; 125 g/ha): very good (a very good herbicidal activity is given at values of at least 85)

Cc1ccc(F)c(Nc2nc(N)nc(C(C)(C)F)n2)c1F [Example 40]
herbicidal activity ([2]; 0.031 kg/ha): very good (a very good herbicidal activity is given at values of at least 85)
herbicidal activity ([7]; 0.031 kg/ha): very good (a very good herbicidal activity is given at values of at least 85)

Nc1nc(Nc2c(F)ccc(F)c2F)nc(C(F)(F)F)n1 [Example 127]
herbicidal activity ([2]; 1000 g/ha): very good (a very good herbicidal activity is given at values of at least 85)
herbicidal activity ([6]; 1000 g/ha): good (a good herbicidal activity is given at values of at least 70)
herbicidal activity ([7]; 1000 g/ha): very good (a very good herbicidal activity is given at values of at least 85)

CCC(C)c1nc(N)nc(Nc2c(F)c(F)c(F)c(F)c2F)n1 (stereo not shown) [Example 62]
herbicidal activity ([3]; 125 g/ha): very good (a very good herbicidal activity is given at values of at least 85)
herbicidal activity (STEME (Stellaria media); 125 g/ha): very good (a very good herbicidal activity is given at values of at least 85)
herbicidal activity (SETVI (Setaria viridis); 125 g/ha): very good (a very good herbicidal activity is given at values of at least 85)

CC(C)(Cl)c1nc(N)nc(Nc2c(F)c(F)cc(F)c2F)n1 [Example 111]
herbicidal activity [4]: very good (a very good herbicidal activity is given at values of at least 85)
herbicidal activity ([3]; 125 g/ha): very good (a very good herbicidal activity is given at values of at least 85)
herbicidal activity (SETVI (Setaria viridis); 125 g/ha): very good (a very good herbicidal activity is given at values of at least 85)

CC(C)(F)c1nc(N)nc(Nc2c(F)cccc2C#N)n1 [Example 38]
herbicidal activity ([2]; 0.125 kg/ha): very good (a very good herbicidal activity is given at values of at least 85)
herbicidal activity ([7]; 0.125 kg/ha): very good (a very good herbicidal activity is given at values of at least 85)

Nc1nc(Nc2c(F)c(F)c(Br)c(F)c2F)nc(C2CCCCC2)n1 [Example 209]
herbicidal activity ([3]; 250 g/ha): good (a good herbicidal activity is given at values of at least 70)
herbicidal activity (VIOAR (Viola arvensis); 250 g/ha): good (a good herbicidal activity is given at values of at least 70)
herbicidal activity (STEME (Stellaria media); 250 g/ha): very good (a very good herbicidal activity is given at values of at least 85)
